# Key:
# CDK2 [1] = target: T1, CDK2 (Homo sapiens, UniProt P24941); assay: Inhibition of CDK2: phospho-Rb (S807/811) HTRF measurement in OVCAR3 cells, 24 h; type: cell-based; settings: 24 h compound treatment, read-out: pRB_OVCAR3_24h
# T1 construct: High-Throughput Measurement of Cellular Endogenous CDK2; endogenous in cells; host or cells: OVCAR3
# How it was run: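 IC50 came from a four-parameter fit of DMSO-normalized TR-FRET ratios (665/620 nm) reporting phospho-Rb S807/811. Lysates were taken from OVCAR3 cultures treated 24 h with compound (0.3 to 10,000 nM) and incubated 4 h at room temperature with the antibody pair.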
# CDK2 [2] = target: T1, CDK2; assay: High-throughput HTRF measurement of cellular endogenous CDK2 level (degradation, DC50/Dmax) in OVCAR3 cells, 6 h; type: cell-based; settings: 6 h compound treatment, HTRF total CDK2, read-out: DC50_OVCAR3_6h
# How it was run: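 DC50 and Dmax were derived by four-parameter logistic fit of the […] TR-FRET ratio, scaled between DMSO (0% degradation) and lysis buffer (100%) controls. The ratio came from an HTRF total-CDK2 sandwich immunoassay on lysates of OVCAR3 cells given 0.03–1,000 nM compound for 6 hours.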
Compound,IC50 (CDK2 [1]) [nM],DC50 (CDK2 [2]) [nM]
"O=C1CCC(N2Cc3cc(N4CCC(CN5CCN(c6cccc(S(=O)(=O)N7CCC(Nc8ncc(C(F)(F)F)cn8)CC7)c6)CC5)CC4)ccc3C2=O)C(=O)N1 (stereo not drawn) [Example 248, 3-(1-oxo-5-(4-((4-(3-((4-((5-(trifluoromethyl)pyrimidin-2-yl)amino)piperidin-1-yl)sulfonyl)phenyl)piperazin-1-yl)methyl)piperidin-1-yl)isoindolin-2-yl)piperidine-2,6-dione]",1 to 100,1000 to 5000
"O=C1CCC(c2csc3cc(C4CCN(CC5CCN(c6cccc(S(=O)(=O)N7CCC(Nc8ncc(C(F)(F)F)cn8)CC7)c6)CC5)CC4)ccc23)C(=O)N1 (stereo not drawn) [Example 250, 3-(6-(1-((1-(3-((4-((5-(trifluoromethyl)pyrimidin-2-yl)amino)piperidin-1-yl)sulfonyl)phenyl)piperidin-4-yl)methyl)piperidin-4-yl)benzo[b]thiophen-3-yl)piperidine-2,6-dione]",1 to 100,10 to 100
"Cn1cc(C2CCC(=O)NC2=O)c2ccc(C3CCN(CC4CCN(c5cccc(S(=O)(=O)N6CCC(Nc7ncc(C(F)(F)F)cn7)CC6)c5)CC4)CC3)cc21 (stereo not drawn) [Example 251, 3-(1-methyl-6-(1-((1-(3-((4-((5-(trifluoromethyl)pyrimidin-2-yl)amino)piperidin-1-yl)sulfonyl)phenyl)piperidin-4-yl)methyl)piperidin-4-yl)-1H-indol-3-yl)piperidine-2,6-dione]",1 to 100,10 to 100

# — patent publication US20260167623A1 (NIKANG THERAPEUTICS, INC., priority 2022, published 2026)
